Experimental findings from patent US20220033448A1, “METHODS FOR AGGREGATION OF PROTEINS” (priority 2011, published 2022) are described below.

Where two headings read alike, the source gives them in different places. No end group written: not given here.

The subject of assay [1] is Corynebacterium.
Protocol: (§1) Bacteria were grown in a shaking incubator at 37° C. and 160rpm in 50 ml BHI , using individual colonies retrieved from a fresh overnight TSA-sheep blood plate. The cultures were grown to a density of approximately 1×10^8cells/ml and then diluted to 5×10^5 cells/ml in CAMHB (Mc Farland 0.5). Each well contained 100p.I (50p.I of peptide containing MHB plus 50 μl inoculum). The final cell density was 1×10^5 to 5×10^5/ml. After addition of the cell suspension, plates were incubated at 37° C. for 18 to 24 hours. The optical density at 590 nm (OD590) of each well was measured after 5 seconds of shaking the plate using Perkin Elmer spectrophotometer (1420 Multilabel Counter Vicotr 3). […] Each well, where no growth was observed, was also plated on TSA-sheep blood agar plates, incubated at 37° C. overnight and visually inspected.
(§2) A microbroth dilution method was used with twofold serial dilutions in CAMHB (according to EMEA guidelines) was used for screening of peptide activity, with concentrations ranging from 0.3 μg/mIto 200 μg/ml.
The test system of assay [2] is negative regulator of genetic competence CIpC/mecB. Nature of the assay: SOSPA shotgun proteomic analysis of soluble / insoluble fractions. In kind it is cell-based, S.aureus and B.cereus. The settings on record: C30 treated vs untreated cells. The source says: The aggregation technology is based on the assumption that short amino acid stretches, with a high propensity of aggregation (e.g. assessed by the TANGO score) and that are derived from a target protein, can induce aggregation of that protein. This hypothesis has been confirmed by a shotgun proteomic analysis of the insoluble fraction. If we assume that our aggregator peptides work through specific interaction with its target and causes its aggregation, it is expected that the target enters the insoluble fraction. For this reason we've decided to split the lysate into 2 fractions: insoluble and soluble and compare these with untreated cell fractions. Proteins present in both treated (TC30) and untreated (NT) insoluble fractions were assumed to present a background of non-specific naturally non-soluble proteins. Additionally we've examined soluble fractions of both treated and untreated bacteria and as expected the protein of interest was present only in the untreated fraction. This means that the following criteria for target search were used:
1) potential aggregation targets are proteins obtained from the list of proteins in the Insoluble fraction of C30 treated cells minus proteins in the Insoluble fraction of non-treated cells […]

In assay [3] the test system is S. epidermidis. Conditions: planktonic, 18 hours.
Protocol: as §1, §2
Assay [4] relates to VRE strains. Nature of the assay: MIC, microbroth dilution. The settings on record: planktonic, 18 hours. In general terms: In broth dilution the organism is exposed to a series of concentrations in liquid medium.
Protocol: as §1
The test system of assay [5] is Bacillus subtilis. Nature of the assay: MIC, microbroth dilution. The settings on record: planktonic, 18 hours.
Protocol: as §1
The test system of assay [6] is Micrococcus luteus ATCC 9341. Nature of the assay: MIC, microbroth dilution. The settings on record: planktonic, 18 hours.
Protocol: as §1
In assay [7] the test system is S. capitis. Nature of the assay: MIC, microbroth dilution. The settings on record: planktonic, 18 hours.
Protocol: as §1
The subject of assay [8] is Candida albicans SC5314. Nature of the assay: In vivo subcutaneous C. albicans biofilm model in rats (polyurethane catheters, CFU). As to the method:
In a next step we also investigated a potential inhibitory role of interferor peptide F9 during in vivo C. albicans biofilm development. We used the in vivo subcutaneous C. albicans biofilm model in rats (i.e. in vivo biofilms formed inside polyurethane triple lumen catheter pieces) as further outlined in the materials and methods section. Only one concentration of peptide F9 (i.e. 50 μM) was tested in the experimental conditions. The peptide was administrated ex vivo, during initial attachment of Candida to the substrate (90 min, 37° C.). Afterwards, the catheters were washed and implanted subcutaneously in rats. Biofilms were studied six days post implantation and quantified by CFUs. […]
Polyurethane triple lumen intravenous catheters (2.4 mm diameter) cut into segments of 1 cm (Arrow International Reading, USA) were incubated overnight in FBS at 37° C. […] The skin was disinfected and catheter fragments were removed from under the subcutaneous tissue, washed twice with 1× PBS and quantified or visualized.The effect of peptides promoting the aggregation of Als3p during Candida biofilm development in vivo was characterized, as well. […]
The amount of fungal biofilm biomass formed inside the catheter lumen of in vitro and in vivo explanted catheters was determined by colony forming units (CFU). […] CFUs were counted after two days at 37° C.

As for RILLGLIRRGSRILLGLIRR [C30], the “activity against the genus Corynebacterium” value in assay [1] is recorded as “active against the genus Corynebacterium”. Also, in assay [2], the “distribution of the target protein between soluble and insoluble fraction” value is “shifted from soluble into insoluble fraction upon peptide treatment”. The MIC entry in assay [3] (S101) is listed as “S101: 1.5 μg/ml”; in assay [3] (S103) it was “S103: 1.5 μg/ml”; in assay [3] (S104), “S104: 1.5 μg/ml”; in assay [3] (S109) it was “S109: 3 μg/ml”; in assay [3] (S. epidermidis ATCC 13228), “S. epidermidis ATCC 13228: 1.5 μg/ml”; in assay [4] (VRE 8), “VRE 8: 3 μg/ml”. Also, the MIC entry in assay [4] (VRE 11) was “VRE 11: 1.5 μg/ml”; in assay [4] (VRE 12), “VRE 12: 12.5 μg/ml”; in assay [4] (VRE 40), “VRE 40: 3 μg/ml”; in assay [4] (VRE 54) it was “VRE 54: 3 μg/ml”; in assay [4] (VRE 60) it was “VRE 60: 3 μg/ml”; in assay [4] (VRE 70), “VRE 70: 1.5 μg/ml”. The MIC entry in assay [5] (Bacillus subtilis ATCC 6051) is recorded as “Bacillus subtilis ATCC 6051: 1.5 μg/ml”; in assay [5] (Bacillus subtilis IP 5832) it was “Bacillus subtilis IP 5832: 6 μg/ml”; in assay [6], “Micrococcus luteus ATCC 9341: 3 μg/ml”; in assay [7], “S. capitis: 1.5 μg/ml”.
Take RKLLFNLGSRNGIVIVATTR [F9]: the “mean CFUs ±SD obtained per catheter fragment” value in assay [8] (50 μM ex vivo during adhesion (90 min, 37° C.), catheters implanted subcutaneously in rats, six days post implantation, control 3.69 ±0.42) was 2.25 ±1.08 login CFU/catheter fragment. Moreover, the “peptide-treated catheters containing less than 2.0 log10 CFU/catheter fragment” value in assay [8] (four out of 20 catheters, 50 μM, rats, six days) turned out to be 20%.
